Key:
Format in all cases: functional, Homo sapiens
Parameters in all cases: dose or concentration left out as unconfirmed
[1] = test system: Colon cancer organoid; experiment: Optimized Dual-Glo assay to identify co-culture induced drug vulnerabilities using donated chemical probes and chemogenomics kinase set in O20 CRC organoid and F20 CAF mono and co-culture. […] Cell viability is reported both mono and co-culture models.
[2] = test system: Colon cancer organoid; experiment: Optimized Dual-Glo assay to identify co-culture induced drug vulnerabilities using donated chemical probes and chemogenomics kinase set in O06 CRC organoid and F06 CAF mono and co-culture. […] Cell viability is reported both mono and co-culture models.
[3] = test system: Colon cancer organoid; experiment: Optimized Dual-Glo assay to identify co-culture induced drug vulnerabilities using donated chemical probes and chemogenomics kinase set in O14 CRC organoid and F14 CAF mono and co-culture. […] Cell viability is reported both mono and co-culture models.
[4] = Culture type Co-Culture, Transduced with Lucferase2-P2A-EGFP lentivirus
[5] = Culture type Co-Culture, Transduced with Renilla-dsRed lentivirus
[6] = Culture type Mono-Culture, Transduced with Lucferase2-P2A-EGFP lentivirus
[7] = Culture type Mono-Culture, Transduced with Renilla-dsRed lentivirus

Cl.Cl.Cl.c1ccc(N2CCN(Cc3nc4ccccc4[nH]3)CC2)nc1
Cell Viability [1, 4]: 41.4322% | Cell Viability [1, 5]: 124.541% | Cell Viability [1, 6]: 78.9868% | Cell Viability [1, 7]: 88.4978% | Cell Viability [2, 4]: 145.739% | Cell Viability [2, 5]: 162.508% | Cell Viability [2, 6]: 117.947% | Cell Viability [2, 7]: 106.828% | Cell Viability [3, 4]: 78.8417% | Cell Viability [3, 5]: 120.535% | Cell Viability [3, 6]: 87.6489% | Cell Viability [3, 7]: 99.3304%

O=C(Nc1cccnn1)N1CCC(=Cc2cccc(Oc3ccc(C(F)(F)F)cn3)c2)CC1
Cell Viability [1, 4]: 75.4997% | Cell Viability [1, 5]: 114.419% | Cell Viability [1, 6]: 100.525% | Cell Viability [1, 7]: 97.4491% | Cell Viability [2, 4]: 113.161% | Cell Viability [2, 5]: 193.053% | Cell Viability [2, 6]: 80.1285% | Cell Viability [2, 7]: 90.1757% | Cell Viability [3, 4]: 80.0964% | Cell Viability [3, 5]: 115.877% | Cell Viability [3, 6]: 79.6396% | Cell Viability [3, 7]: 77.8588%

Clc1cccc(-c2nnnn2Cc2cccnc2)c1Cl
Cell Viability [1, 4]: 106.259% | Cell Viability [1, 5]: 101.74% | Cell Viability [1, 6]: 98.4532% | Cell Viability [1, 7]: 98.284% | Cell Viability [2, 4]: 143.79% | Cell Viability [2, 5]: 176.132% | Cell Viability [2, 6]: 116.081% | Cell Viability [2, 7]: 109.73% | Cell Viability [3, 4]: 106.43% | Cell Viability [3, 5]: 104.512% | Cell Viability [3, 6]: 115.794% | Cell Viability [3, 7]: 81.6635%

Cc1nc(N2CC[C@H](O)C2)ncc1-c1cc(C(F)(F)F)cc2[nH]ncc12
Cell Viability [1, 4]: 47.2711% | Cell Viability [1, 5]: 153.575% | Cell Viability [1, 6]: 55.4223% | Cell Viability [1, 7]: 100.169% | Cell Viability [2, 4]: 111.861% | Cell Viability [2, 5]: 161.788% | Cell Viability [2, 6]: 77.8362% | Cell Viability [2, 7]: 94.0965% | Cell Viability [3, 4]: 63.6905% | Cell Viability [3, 5]: 138.157% | Cell Viability [3, 6]: 56.4353% | Cell Viability [3, 7]: 87.4633%

Cl.O=C(O)c1cc(-c2ccc(C3CCNCC3)cc2)c2ccc(-c3ccc(C(F)(F)F)cc3)cc2c1
Cell Viability [1, 4]: 105.826% | Cell Viability [1, 5]: 101.384% | Cell Viability [1, 6]: 71.4178% | Cell Viability [1, 7]: 87.2658% | Cell Viability [2, 4]: 107.895% | Cell Viability [2, 5]: 117.47% | Cell Viability [2, 6]: 95.8495% | Cell Viability [2, 7]: 93.2112% | Cell Viability [3, 4]: 74.9682% | Cell Viability [3, 5]: 122.124% | Cell Viability [3, 6]: 85.098% | Cell Viability [3, 7]: 99.5367%

C[C@@H](c1cccc(CN)c1)n1cc(Cl)cc(C(N)=O)c1=N.Cl
Cell Viability [1, 4]: 85.1583% | Cell Viability [1, 5]: 93.567% | Cell Viability [1, 6]: 85.5992% | Cell Viability [1, 7]: 85.7646% | Cell Viability [2, 4]: 104.535% | Cell Viability [2, 5]: 114.984% | Cell Viability [2, 6]: 142.418% | Cell Viability [2, 7]: 104.758% | Cell Viability [3, 4]: 79.0577% | Cell Viability [3, 5]: 134.768% | Cell Viability [3, 6]: 97.3624% | Cell Viability [3, 7]: 96.7861%

O=C(NCc1ccccc1)c1ccc(S(=O)(=O)NCc2ccccc2)cc1
Cell Viability [1, 4]: 89.1581% | Cell Viability [1, 5]: 96.8328% | Cell Viability [1, 6]: 97.877% | Cell Viability [1, 7]: 137.118% | Cell Viability [2, 4]: 120.089% | Cell Viability [2, 5]: 107.944% | Cell Viability [2, 6]: 199.391% | Cell Viability [2, 7]: 148.571% | Cell Viability [3, 4]: 77.1762% | Cell Viability [3, 5]: 97.8485% | Cell Viability [3, 6]: 125.216% | Cell Viability [3, 7]: 99.6349%

C[C@H]1CCCN1Cc1nc2cc(NC(=O)c3ccc4cnccc4c3)ccc2[nH]1
Cell Viability [1, 4]: 98.572% | Cell Viability [1, 5]: 149.477% | Cell Viability [1, 6]: 83.1729% | Cell Viability [1, 7]: 94.0651% | Cell Viability [2, 4]: 122.515% | Cell Viability [2, 5]: 131.721% | Cell Viability [2, 6]: 188.522% | Cell Viability [2, 7]: 107.295% | Cell Viability [3, 4]: 60.7566% | Cell Viability [3, 5]: 146.013% | Cell Viability [3, 6]: 100.332% | Cell Viability [3, 7]: 105.964%

Cc1cc(C)cc([C@@H]2c3cc(C)ccc3NC(=O)CN2C(=O)c2ccc(Br)s2)c1
Cell Viability [1, 4]: 135.921% | Cell Viability [1, 5]: 541.943% | Cell Viability [1, 6]: 109.076% | Cell Viability [1, 7]: 515.86% | Cell Viability [2, 4]: 107.168% | Cell Viability [2, 5]: 464.523% | Cell Viability [2, 6]: 138.593% | Cell Viability [2, 7]: 545.831% | Cell Viability [3, 4]: 88.8372% | Cell Viability [3, 5]: 581.73% | Cell Viability [3, 6]: 126.733% | Cell Viability [3, 7]: 467.801%

Cc1cc(C)cc([C@H]2c3cc(C)ccc3NC(=O)CN2C(=O)c2ccc(Br)s2)c1
Cell Viability [1, 4]: 134.503% | Cell Viability [1, 5]: 98.7461% | Cell Viability [1, 6]: 124.059% | Cell Viability [1, 7]: 79.4319% | Cell Viability [2, 4]: 94.0417% | Cell Viability [2, 5]: 115.465% | Cell Viability [2, 6]: 159.24% | Cell Viability [2, 7]: 104.104% | Cell Viability [3, 4]: 84.3524% | Cell Viability [3, 5]: 110.086% | Cell Viability [3, 6]: 124.101% | Cell Viability [3, 7]: 91.0337%

CC(=O)c1cc(-c2ccccc2OCC2CC2)c2ncccn12
Cell Viability [1, 4]: 90.8424% | Cell Viability [1, 5]: 121.201% | Cell Viability [1, 6]: 99.1369% | Cell Viability [1, 7]: 90.8457% | Cell Viability [2, 4]: 107.249% | Cell Viability [2, 5]: 181.775% | Cell Viability [2, 6]: 93.2808% | Cell Viability [2, 7]: 95.3402% | Cell Viability [3, 4]: 80.3991% | Cell Viability [3, 5]: 93.1948% | Cell Viability [3, 6]: 108.194% | Cell Viability [3, 7]: 100.736%

Cc1cc(CN)cc(C)c1-c1ncn(C)c1-c1cncn1C
Cell Viability [1, 4]: 127.582% | Cell Viability [1, 5]: 117.48% | Cell Viability [1, 6]: 113.288% | Cell Viability [1, 7]: 98.6435% | Cell Viability [2, 4]: 121.461% | Cell Viability [2, 5]: 141.638% | Cell Viability [2, 6]: 159.088% | Cell Viability [2, 7]: 144.43% | Cell Viability [3, 4]: 82.5441% | Cell Viability [3, 5]: 115.965% | Cell Viability [3, 6]: 119.104% | Cell Viability [3, 7]: 86.3829%

CCNC(=O)c1cc2c(N3CCOCC3C)ccnc2[nH]1 (stereo not drawn)
Cell Viability [1, 4]: 144.452% | Cell Viability [1, 5]: 100.256% | Cell Viability [1, 6]: 103.659% | Cell Viability [1, 7]: 101.624% | Cell Viability [2, 4]: 131.632% | Cell Viability [2, 5]: 146.353% | Cell Viability [2, 6]: 109.161% | Cell Viability [2, 7]: 91.669% | Cell Viability [3, 4]: 86.1024% | Cell Viability [3, 5]: 100.89% | Cell Viability [3, 6]: 87.7409% | Cell Viability [3, 7]: 81.9796%

Cl.Cn1cncc1[C@](O)(COc1ccc(C#N)cc1-c1ccc(OC(F)(F)F)cc1)c1ccc(C#N)cc1
Cell Viability [1, 4]: 15.3114% | Cell Viability [1, 5]: 150.357% | Cell Viability [1, 6]: 17.164% | Cell Viability [1, 7]: 65.8997% | Cell Viability [2, 4]: 31.9269% | Cell Viability [2, 5]: 197.169% | Cell Viability [2, 6]: 11.7395% | Cell Viability [2, 7]: 58.9843% | Cell Viability [3, 4]: 26.9606% | Cell Viability [3, 5]: 99.4366% | Cell Viability [3, 6]: 53.0011% | Cell Viability [3, 7]: 61.9663%

Source: ChEMBL document CHEMBL5674860, “Optimized Dual-Glo Assay to identify co-culture-induced drug vulnerabilities in 3D CRC models” (2024)
